The target in the test is Integrin alpha-4/beta-7 (Homo sapiens, UniProt P13612+P26010). Kind of test: Inhibition of α4β7 and α4β1 Integrins. The method, then: MAdCAM (R&D Systems, 0.1 ug) was diluted in 50 μL PBS, added to each well of an opaque ELISA plate (Thermo), and incubated overnight at 4° C. Coated plates were washed once with PBS and then blocked with 200 μL of assay buffer (10 mM HEPES, 150 mM NaCl, 1 mM MnCl2, 0.1 mM CaCl2), 1% BSA) for 1 hour at 37° C. and 5% CO2. After incubation, buffer was aspirated from the plates and 50 μL of fresh assay buffer is added. Compounds were added by a compouns dispenser (Tecan) and DMSO concentration was normalized to 1% across each plate. 50 μL of RPMI-8866 cells (2×10^6 per mL) were added to each well and the plates were incubated for 1 hour at 37° C. and 5% CO2. After incubation, plates were allowed to cool to RT for 10 minutes before being washed four times in assay buffer by an automated plate washer (BioTek). After washing, 100 μL of a 1:1 mixture of assay buffer and CellTiter GLO 2.0 reagent (Promega) were added to each well. Plates were mixed for 2 minutes at 1000 rpm and then allowed to incubate an additional 10 minutes before reading out luminescence on a Tecan Spark plate reader. Raw data was converted to percent inhibition based on DMSO only and control compound wells, and curves were analyzed by 4-parameter fit within Dotmatics software.

Bounds are passed on as bounds.

These results are taken from BindingDB's records for patent US20250313535 (Dice Molecules Sv, 2025).

By IC50 is commonly meant the concentration that gives 50% inhibition. A low value points to higher potency.

Sequence of Integrin alpha-4/beta-7 (P13612 whole entry): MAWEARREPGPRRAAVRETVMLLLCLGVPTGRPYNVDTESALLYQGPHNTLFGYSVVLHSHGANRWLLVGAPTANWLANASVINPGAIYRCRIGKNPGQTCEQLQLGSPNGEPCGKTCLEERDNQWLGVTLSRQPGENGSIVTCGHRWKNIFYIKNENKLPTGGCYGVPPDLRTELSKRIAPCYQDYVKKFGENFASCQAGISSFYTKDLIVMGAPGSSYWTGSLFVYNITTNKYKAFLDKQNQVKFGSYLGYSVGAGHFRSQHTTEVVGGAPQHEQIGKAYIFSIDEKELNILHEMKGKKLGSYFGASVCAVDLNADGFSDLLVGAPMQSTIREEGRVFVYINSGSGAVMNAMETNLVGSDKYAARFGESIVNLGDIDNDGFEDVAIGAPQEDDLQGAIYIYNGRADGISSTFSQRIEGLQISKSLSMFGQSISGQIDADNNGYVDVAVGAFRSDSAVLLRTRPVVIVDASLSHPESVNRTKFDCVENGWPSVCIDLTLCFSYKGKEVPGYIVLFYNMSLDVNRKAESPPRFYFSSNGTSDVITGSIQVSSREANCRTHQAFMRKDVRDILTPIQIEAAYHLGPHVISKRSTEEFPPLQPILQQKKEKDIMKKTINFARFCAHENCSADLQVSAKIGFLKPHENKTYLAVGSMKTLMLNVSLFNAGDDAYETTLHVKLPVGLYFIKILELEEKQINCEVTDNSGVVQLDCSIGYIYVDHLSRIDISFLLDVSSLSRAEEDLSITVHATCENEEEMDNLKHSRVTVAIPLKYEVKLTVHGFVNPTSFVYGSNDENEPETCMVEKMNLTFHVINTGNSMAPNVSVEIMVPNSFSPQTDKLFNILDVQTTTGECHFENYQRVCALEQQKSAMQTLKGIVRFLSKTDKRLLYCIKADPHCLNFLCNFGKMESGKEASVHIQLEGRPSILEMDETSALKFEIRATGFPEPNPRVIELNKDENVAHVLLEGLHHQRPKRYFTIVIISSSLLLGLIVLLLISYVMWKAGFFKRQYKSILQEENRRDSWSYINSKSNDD
Sequence of Integrin alpha-4/beta-7 (P26010 whole entry): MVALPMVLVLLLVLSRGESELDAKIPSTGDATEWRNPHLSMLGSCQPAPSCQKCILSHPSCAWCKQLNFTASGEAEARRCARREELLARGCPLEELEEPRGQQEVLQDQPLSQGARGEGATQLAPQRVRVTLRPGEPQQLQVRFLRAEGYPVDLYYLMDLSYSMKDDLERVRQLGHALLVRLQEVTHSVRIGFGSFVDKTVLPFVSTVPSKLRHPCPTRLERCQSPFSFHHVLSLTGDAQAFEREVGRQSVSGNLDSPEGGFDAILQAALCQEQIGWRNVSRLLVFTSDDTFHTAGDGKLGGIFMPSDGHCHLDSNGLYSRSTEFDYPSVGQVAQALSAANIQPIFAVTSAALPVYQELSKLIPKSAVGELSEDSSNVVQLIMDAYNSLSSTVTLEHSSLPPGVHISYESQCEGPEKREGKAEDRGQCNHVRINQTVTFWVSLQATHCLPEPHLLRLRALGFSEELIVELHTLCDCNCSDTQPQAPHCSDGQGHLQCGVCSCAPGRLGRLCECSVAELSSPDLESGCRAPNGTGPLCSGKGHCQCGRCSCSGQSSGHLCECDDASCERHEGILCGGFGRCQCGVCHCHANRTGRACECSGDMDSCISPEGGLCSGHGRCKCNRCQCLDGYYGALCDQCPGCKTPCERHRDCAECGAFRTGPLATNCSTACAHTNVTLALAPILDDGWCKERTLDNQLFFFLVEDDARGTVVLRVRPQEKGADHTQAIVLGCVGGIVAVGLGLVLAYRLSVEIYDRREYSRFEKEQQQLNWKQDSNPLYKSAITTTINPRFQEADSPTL

`Cn1ccc(C(F)(F)F)c(-c2nccc3c(C[C@H](NC(=O)c4c(F)cc(N(CC(F)(F)F)CC(F)(F)F)cc4F)C(=O)O)cccc23)c1=O` [US20250313535, Compound 237] came in with an IC50 below 10 nM. `Cn1c(=O)c(-c2cccc3c(C[C@H](NC(=O)c4c(F)cc(NC5CCC(F)(F)C5)cc4F)C(=O)O)cccc23)c(C(F)(F)F)c2ccccc21` (some centres not stated) [US20250313535, Compound 386] displayed a half-maximal inhibitory concentration (IC50) above 100 nM.
